{"source": "patent US9604974B2", "about": "“Compounds as modulator of JAK-STAT pathway, methods and applications thereof” (UNIVERSITY OF MYSORE, priority 2015, dated 2017)", "key": {"Huh 7-Luc tumors": {"tested_on": "Huh 7-Luc tumors", "assay": "Orthotopic human HCC model, bioluminescence tumor growth", "assay_type": "in vivo, athymic nu/nu female mice", "conditions": "10 mg/kg intraperitoneal, five days a week; p value=0.0385", "protocol": "All animal experiments were performed according to protocols approved by the SingHealth Institutional Animal Use and Care Committee. For drug efficacy study, eight week-old athymic nu/nu female mice (from Biolasco, Taiwan) were implanted with the Huh 7-Luc cells orthotopically as described in the below examples. When the bioluminescence signal reached 10^6, mice were treated either with vehicle (1% DMSO), 2 mg/kg of CIMO or 10 mg/kg of CIMO five days a week intraperitoneally. Tumor development was monitored twice a week by measuring the bioluminescence signals. Mice were euthanized when the humane end-point criteria is met by CO2 inhalation. Primary liver tumor and lung tissues were excised, snap-frozen and stored at −80° C. until further analysis.\nThe antitumor potential of CIMO is tested in vivo via. intra-peritoneal administration in an orthotopic model of human HCC using Huh 7-Luc transfected cells. 100 μl containing 3×10^6 Huh 7-Luc cells are injected subcutaneously in the right flank of Nude mice. When the tumor volume reaches approximately 1 cm^3, tumor is harvested, cut into 2 mm^3 pieces and then implanted orthotopically into the liver of Nude mice. […] The development of tumors is monitored by imaging and quantification of the bioluminescence signals using the Xenogen IVIS system (Caliper Life Sciences, CA). […]"}, "HepG2 cells": {"tested_on": "HepG2 cells", "assay": "Cell cycle distribution by PI flow cytometry (sub-G1)", "assay_type": "cell-based, human", "conditions": "HepG2, 10 μMol/L CIMO", "protocol": "FIG. 1 depicts the accumulation of HepG2 cells in SubG1 phase caused by Compound 1 (CIMO). HepG2 cells (5×10^5/mL) are treated with 10 μMol/L CIMO for indicated time points, after which the cells are washed, fixed, stained with PI, and analyzed for DNA content by flow cytometry.\nIn late apoptosis, activation of endonucleases leads to fragmentation of genomic DNA into oligomers thereby contributing to a decrease in DNA content, which in turn leads to the buildup of cells in Sub-G1 phase. In order to evaluate the effect of Compound 1 on cell cycle distribution of HepG2 cells, flow cytometric analysis is performed. HepG2 cells are treated with CIMO at different time intervals up to 48 hours. Thereafter, cells are washed, fixed with 70% ethanol, and incubated for about 30 minutes about at 37° C. with 0.1% RNaseA in PBS. Cells are then washed again, resuspended, and stained in PBS containing 25 μg/ml propidium iodide (PI) for about 30 minutes at room temperature. Cell distribution across the cell cycle after PI staining is analyzed with a Beckman Coulter flow cytometer."}, "JAK1": {"tested_on": "JAK1", "assay": "IL-6 induced JAK1 phosphorylation in Hep3B", "assay_type": "cell-based", "conditions": "10 μMol/L CIMO, IL-6 10 ng/mL", "protocol": "FIG. 3 depicts comparative study of cell viability between STAT3-siRNA transfected and Compound 1 (CIMO) treated HepG2 cells [A]. Correspondingly, Western Blot analysis is used to assess the levels of phospho-STAT3 and STAT3 in HepG2 cells with siRNA-mediated depletion STAT3 expression and on exposure to 4 μM CIMO. Whole cell extract is prepared and resolved on SDS-PAGE gel, electrotransferred onto nitrocellulose membrane, and probed for phospho-STAT3 and the same blot is stripped and reprobed with STAT3 antibody and Beta actin to verify equal protein loading. [B] showcases the modulation of STAT3 mediated transcription, α2-M promoter activity by Compound 1 (CIMO) in HepG2 cells. [C] depicts the inhibition of IL-6-induced phosphorylation of STAT3, JAK1 and JAK2 by Compound 1 (CIMO). Hep3B cells (5×10^5/mL) are treated with 10 μMol/L CIMO for the indicated times and then stimulated with IL-6 (10 ng/mL) for about 15 minutes. Whole-cell extracts are then prepared, resolved on SDS-PAGE gel, electrotransferred onto nitrocellulose membrane and probed with phospho-STAT3, phospho-JAK1 and phospho-JAK2 antibodies. The same blot is stripped and reprobed with STAT3, JAK1 and JAK2 antibody to verify equal protein loading. [D] and [E], showcases the suppression of STAT3 regulated gene products involved in cell proliferation and survival by Compound 1 (CIMO). […]"}, "[1]": {"tested_on": "phospho-STAT3, Ki-67, cleaved caspase-3", "assay": "Immunohistochemistry of tumor tissues", "assay_type": "in vivo, athymic nu/nu female mice", "conditions": "treated vs. control group", "protocol": "The effect of CIMO on constitutive phospho-STAT3 levels in HCC tumor tissues is further analyzed by immunohistochemical analysis. Solid tumors from control and drug-treated groups are fixed with 10% phosphate buffered formalin, processed, and embedded in paraffin. The sections are cut to 5 micron size and deparafinized in xylene, dehydrated in graded alcohol, and finally hydrated in water. Antigen retrieval is conducted by boiling the slide in 10 mM sodium citrate (pH 6.0) for about 30 minutes. Immunohistochemistry is conducted following the manufacturer's instructions (Dako LSAB Kit). Briefly, endogenous peroxidases are quenched with 3% hydrogen peroxide. Sections are incubated with primary antibodies for about 2 hours as follows: anti-pSTAT3, anti-Ki-67 and anti-caspase-3 (each at 1:100 dilutions). The slides are subsequently washed several times in TBS with 0.1% Tween-20 and are incubated with biotinylated linker for about 45 minutes, provided in the LSAB Kit according to the manufacturer's instructions. Immunoreactive species are detected using 3, 3′-diaminobenzidine tetrahydrochloride as a substrate. The sections are counterstained with Gill's hematoxylin and mounted under glass cover slips. Images are taken using an Olympus BX51 microscope (magnification, 40×). Quantitative analysis of immunohistochemistry images are done by visual scores between the control and treated images. In this expression quantitation technique, each image is divided into four parts and each part is individually quantitated for the biomarker expression. A cell scored as positive refers to the presence of brown staining (peroxidase) in any part of the studied tissue. A negative cell scored refers to no staining or weak staining."}}, "data": [{"smiles": "COc1ccc(C2CNC(c3cn(Cc4ccc(-c5ccccc5C#N)cc4)c4ccccc34)OC23CCCCC3)cc1", "note": "(stereo not drawn) [Compound 1]", "values": [{"measurement": "tumor growth versus DMSO treated controls", "setting": "Huh 7-Luc tumors", "result": "significant inhibition of tumor growth"}, {"measurement": "sub-G1 cell population", "setting": "HepG2 cells; 16 hours", "result": 18.8, "unit": "%"}, {"measurement": "sub-G1 cell population", "setting": "HepG2 cells; 24 hours", "result": 38.7, "unit": "%"}, {"measurement": "sub-G1 cell population", "setting": "HepG2 cells; 36 hours", "result": 71, "unit": "%"}, {"measurement": "sub-G1 cell population", "setting": "HepG2 cells; 48 hours", "result": 92.1, "unit": "%"}, {"measurement": "IL-6 induced phosphorylation of JAK1", "setting": "JAK1", "result": "substantially down-regulates"}, {"measurement": "constitutive STAT3 activation in tumor tissues", "setting": "[1]", "result": "significantly inhibits"}, {"measurement": "expression of Ki-67 in tumor tissues", "setting": "[1]", "result": "downregulated"}, {"measurement": "expression of cleaved caspase-3 in tumor tissues", "setting": "[1]", "result": "significantly increased"}]}]}
